In data set [1] the target is T1, CHIKV nsP2 ATPase (Chikungunya virus, UniProt Q8JUX6). The data set can be described thus: High throughput nsP2 ATPase activity assay (Malachite Green).
The next data set can be described thus: Kinetic solubility. The note with it: kinetic from dmso stock.
Data set [2] addresses T1, CHIKV nsP2 ATPase. The data set can be described thus: Secondary CHIKV nsP2 ATPase assay (ADP-Glo). The note with it: for Hill slope: ADP-Glo dose response. On the technique in general: ADP-Glo first removes unused ATP, then detects ADP through luciferase.
Setting [3] is: read-out: Malachite Green % INHIBITION (ORIGINAL).
[4] abbreviates: read-out: Malachite Green % INHIBITION (RESCREEN).
Setting [5] is: read-out: ADP-Glo IC50, Avge n=2, 1 nM CHIKV nsP2fl, 30 μM ATP, 30 min pre-incubation.

These results are taken from publication doi:10.1101/2024.12.02.625520, “Identification of Inhibitors of Chikungunya virus nsP2 ATPase” (bioRxiv, 2025).

In brackets after ≈: the same amount, converted by molar mass. Like-named read-outs stand apart in the source and are kept apart here.

T1 sequence (Q8JUX6 536-1333): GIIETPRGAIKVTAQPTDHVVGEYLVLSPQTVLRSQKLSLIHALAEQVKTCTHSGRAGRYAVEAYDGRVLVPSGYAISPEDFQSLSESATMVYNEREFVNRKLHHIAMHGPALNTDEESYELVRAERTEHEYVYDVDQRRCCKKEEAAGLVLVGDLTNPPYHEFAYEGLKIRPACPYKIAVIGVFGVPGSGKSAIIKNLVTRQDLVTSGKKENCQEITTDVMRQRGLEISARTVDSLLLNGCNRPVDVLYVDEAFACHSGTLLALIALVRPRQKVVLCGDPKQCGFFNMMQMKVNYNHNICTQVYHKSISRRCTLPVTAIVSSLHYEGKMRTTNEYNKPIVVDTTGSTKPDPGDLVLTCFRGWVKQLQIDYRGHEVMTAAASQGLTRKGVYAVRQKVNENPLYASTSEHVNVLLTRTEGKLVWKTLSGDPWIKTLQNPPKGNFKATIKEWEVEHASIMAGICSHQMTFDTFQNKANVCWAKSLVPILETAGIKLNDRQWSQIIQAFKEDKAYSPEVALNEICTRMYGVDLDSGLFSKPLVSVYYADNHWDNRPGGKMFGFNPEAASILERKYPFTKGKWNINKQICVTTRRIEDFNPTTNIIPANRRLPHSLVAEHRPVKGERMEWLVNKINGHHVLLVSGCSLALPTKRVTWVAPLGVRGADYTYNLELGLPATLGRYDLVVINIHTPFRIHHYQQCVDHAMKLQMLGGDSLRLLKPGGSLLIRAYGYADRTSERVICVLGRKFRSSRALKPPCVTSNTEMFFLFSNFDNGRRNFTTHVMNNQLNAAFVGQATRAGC

`Fc1cccc(CSC2=NC3(CCCCC3)Nc3ccccc32)c1` [RA-0001815]: the inhibition (usually the change of the read-out against control, counted positive when it falls) at 25 µM stood at 81% on CHIKV nsP2 ATPase [1] (setting [3]) and 77% at CHIKV nsP2 ATPase [1] (setting [4]).
Turning to `COc1cc(Cl)c(NS(=O)(=O)c2c(C)sc(C)c2-c2[nH]nc(C)c2C)c(OC)c1` [RA-0001819], the kinetic solubility (commonly the concentration staying in solution when a stock, usually in DMSO, is diluted into the medium) in the data set “Kinetic solubility” is 12.5 µM (≈ 5.7 µg/mL). In addition, on CHIKV nsP2 ATPase [2], the IC50 (in general, the concentration that inhibits the measured activity by half) turned out to be 0.6 µM. For the same compound, the Hill slope (as a rule, a measure of the steepness of the concentration-response curve) at CHIKV nsP2 ATPase [2] (Avge n=2) was found to be 0.7. Further, the inhibition at 25 µM was determined as 66% at CHIKV nsP2 ATPase [1] (setting [3]) and 72% at CHIKV nsP2 ATPase [1] (setting [4]).
Regarding `O=C(CN1C(=O)C2C3CCC(C3)C2C1=O)OCC(=O)c1ccc(Cl)cc1` (stereo not shown) [RA-0001796], the IC50 against CHIKV nsP2 ATPase [2] was 19.9 µM. This compound also came in with a Hill slope at CHIKV nsP2 ATPase [2] (Avge n=2) of 0.6. The inhibition at 25 µM on CHIKV nsP2 ATPase [1] (setting [3]) is 60%; on CHIKV nsP2 ATPase [1] (setting [4]), 55%.
For `CSc1ccc(Cn2cccc2C2=NC(CSCc3ccc(F)cc3)CO2)cc1` (stereo not shown) [RA-0001812], the results for the inhibition at 25 µM on CHIKV nsP2 ATPase [1] (setting [3]) and on CHIKV nsP2 ATPase [1] (setting [4]) were 48% and 53%, respectively.
In turn, `COc1ccc(OC)c(N2C(=O)/C(=C/c3ccco3)C(=O)NC2=S)c1` [RA-0001798] displayed a Hill slope at CHIKV nsP2 ATPase [2] (Avge n=2) of 1.4. The IC50 at CHIKV nsP2 ATPase [2] (setting [5]) was 3.8 µM; on CHIKV nsP2 ATPase [2] (read-out: ADP-Glo IC50, Avge n=2, 1 nM CHIKV nsP2fl, 30 μM ATP, 30 min pre-incubation, listed as 1798), below 10 µM. In addition, the inhibition at 25 µM at CHIKV nsP2 ATPase [1] (setting [3]) worked out at 79%; on CHIKV nsP2 ATPase [1] (setting [4]) it was 74%.
As for `Brc1ccc(-c2csc(N3CCc4ccccc4C3)n2)cc1` [RA-0001809], the inhibition at 25 µM at CHIKV nsP2 ATPase [1] (setting [3]) amounted to 58%; at CHIKV nsP2 ATPase [1] (setting [4]) it was 60%.
On to `CN(Cc1ccco1)c1nc(-c2ccc(Cl)cc2)nc2ccccc12` [RA-0001817], for which the values for the inhibition at 25 µM on CHIKV nsP2 ATPase [1] (setting [3]) and at CHIKV nsP2 ATPase [1] (setting [4]) were 49% and 56%, respectively.
`O=C1c2oc3ccccc3c(=O)c2C(c2ccc(O)cc2)N1Cc1ccccc1Cl` (stereo not shown) [RA-0001802]: the IC50 on CHIKV nsP2 ATPase [2] was determined as 14.8 µM. The compound further yielded a Hill slope at CHIKV nsP2 ATPase [2] (Avge n=2) of 1. Further, the inhibition at 25 µM came out at 37% on CHIKV nsP2 ATPase [1] (setting [3]) and 51% on CHIKV nsP2 ATPase [1] (setting [4]).
The corresponding values for `Cc1ncc2c(n1)COC21CN(C(=O)C2(c3ccccc3)CCCC2)C1` [RA-0001824] are 5.6 µM, 0.43, 79% and 69%.
With `O=C(C1CCCN(c2ccc(Sc3ccc(Br)cc3)nn2)C1)N1CCSCC1` (stereo not shown) [RA-0001816], at CHIKV nsP2 ATPase [2] (Avge n=2), the Hill slope was 1.2. Also, the IC50 at CHIKV nsP2 ATPase [2] (setting [5]) was found to be 7.2 µM. Also, the inhibition at 25 µM at CHIKV nsP2 ATPase [1] (setting [3]) amounted to 67%; at CHIKV nsP2 ATPase [1] (setting [4]), 71%.
With `Clc1cccc(CSC2=NC3(CCCCC3)Nc3ccccc32)c1` [RA-0001814], the inhibition at 25 µM on CHIKV nsP2 ATPase [1] (setting [3]) is 73%; on CHIKV nsP2 ATPase [1] (setting [4]) it was 54%.
Compound `CS(=O)(=O)NCC1CCOC2(CCN(C(=O)C3(c4ccccc4)CCCC3)CC2)C1` (stereo not shown) [RA-0001822] returned a kinetic solubility in the data set “Kinetic solubility” of 236 µM (≈ 103 µg/mL). Also, the IC50 against CHIKV nsP2 ATPase [2] amounted to 2.3 µM. Moreover, the Hill slope at CHIKV nsP2 ATPase [2] (Avge n=2) stood at 0.85. Also, the inhibition at 25 µM at CHIKV nsP2 ATPase [1] (setting [3]) turned out to be 84%; at CHIKV nsP2 ATPase [1] (setting [4]) it was 81%.
Compound `N#Cc1c(SCc2ccccc2)cc(SCc2ccccc2)cc1SCc1ccccc1` [RA-0001807] had a Hill slope on CHIKV nsP2 ATPase [2] (Avge n=2) of 2. For the same compound, the figures for the inhibition at 25 µM on CHIKV nsP2 ATPase [1] (setting [3]) and at CHIKV nsP2 ATPase [1] (setting [4]) were 45% and 60%, respectively.
For `O=c1cc(-c2ccc(O)c(O)c2)oc2cc(O)cc(O)c12` [RA-0001820], the inhibition at 25 µM on CHIKV nsP2 ATPase [1] (setting [3]) was 60%; on CHIKV nsP2 ATPase [1] (setting [4]) it was 62%.
Regarding `CCCC(C(=O)O)N1C(=O)/C(=C/c2ccc(-c3ccc(Br)cc3)o2)SC1=S` (stereo not shown) [RA-0001801], the Hill slope on CHIKV nsP2 ATPase [2] (Avge n=2) is reported as 1.4. Further, on CHIKV nsP2 ATPase [2] (setting [5]), the IC50 stood at 12.8 µM. The results for the inhibition at 25 µM at CHIKV nsP2 ATPase [1] (setting [3]) and at CHIKV nsP2 ATPase [1] (setting [4]) were 62% and 55%, respectively.
On to `Cc1cccc(CSc2nsc(SCc3cccc(C)c3)c2C#N)c1` [RA-0001803], for which the inhibition at 25 µM at CHIKV nsP2 ATPase [1] (setting [3]) stood at 57%; at CHIKV nsP2 ATPase [1] (setting [4]), 61%.
Take `Cc1ccnc(OC2CCOC3(CCN(C(=O)C4(c5ccccc5)CCCC4)CC3)C2)c1` (stereo not shown) [RA-0001821]: the solubility (kinetic) in “Kinetic solubility” worked out at 14.2 µM (≈ 6.17 µg/mL). The Hill slope on CHIKV nsP2 ATPase [2] (Avge n=2) was 1.25. For the same compound, the IC50 at CHIKV nsP2 ATPase [2] (setting [5]) was 4 µM. Moreover, the figures for the inhibition at 25 µM on CHIKV nsP2 ATPase [1] (setting [3]) and on CHIKV nsP2 ATPase [1] (setting [4]) were 70% and 65%, respectively.
For the compound `Cc1ccc(CSc2nsc(SCc3ccc(C)cc3)c2C#N)cc1` [RA-0001806], the inhibition at 25 µM on CHIKV nsP2 ATPase [1] (setting [3]) is 45%; at CHIKV nsP2 ATPase [1] (setting [4]) it was 53%.
In “Kinetic solubility”, `Cc1nc(CC2CCOC3(CCN(C(=O)C4(c5ccccc5)CCCC4)CC3)C2)no1` (stereo not shown) [RA-0001823] showed a solubility (kinetic) of 202 µM (≈ 85.6 µg/mL). Moreover, the IC50 at CHIKV nsP2 ATPase [2] was found to be 1.5 µM. At CHIKV nsP2 ATPase [2] (Avge n=2), this compound gave a Hill slope of 0.87. The figures for the inhibition at 25 µM on CHIKV nsP2 ATPase [1] (setting [3]) and on CHIKV nsP2 ATPase [1] (setting [4]) were 78% and 82%, respectively.
Turning to `O=C(CSc1nnc2c(=O)n(-c3cccc(F)c3)ccn12)c1c[nH]c2ccccc12` [RA-0001818], the values for the inhibition at 25 µM on CHIKV nsP2 ATPase [1] (setting [3]) and on CHIKV nsP2 ATPase [1] (setting [4]) were 50% and 145%, respectively.
In the same order, the values of `Cc1c(Cl)ccc2c1NC(C(=O)O)C1CC=CC21` (stereo not shown) [RA-0001808] are 63% and 69%.
For `Clc1ccccc1CSC1=NC2(CCCCC2)Nc2ccccc21` [RA-0001813], the inhibition at 25 µM was 66% at CHIKV nsP2 ATPase [1] (setting [3]) and 81% on CHIKV nsP2 ATPase [1] (setting [4]).
Take `CC1SC2(C(=O)Nc3ccccc32)N(CCc2c[nH]c3ccccc23)C1=O` (stereo not shown) [RA-0001810]: inhibition on CHIKV nsP2 ATPase [2] was half-maximal at 27.5 µM (IC50). Also, the Hill slope at CHIKV nsP2 ATPase [2] (Avge n=2) turned out to be 2.65. The inhibition at 25 µM on CHIKV nsP2 ATPase [1] (setting [3]) stood at 58%; at CHIKV nsP2 ATPase [1] (setting [4]), 76%.
Regarding `Fc1cccc(Cl)c1Cn1cccc1C1=NC(CSCc2ccccc2)CO1` (stereo not shown) [RA-0001811], the inhibition at 25 µM worked out at 46% at CHIKV nsP2 ATPase [1] (setting [3]) and 56% at CHIKV nsP2 ATPase [1] (setting [4]).
In the case of `N#Cc1c(SCc2cccc(F)c2)nsc1SCc1cccc(F)c1` [RA-0001805], the results for the inhibition at 25 µM on CHIKV nsP2 ATPase [1] (setting [3]) and on CHIKV nsP2 ATPase [1] (setting [4]) were 33% and 51%, respectively.
Consider `N#Cc1c(SCc2ccccc2Cl)nsc1SCc1ccccc1Cl` [RA-0001804], for which the Hill slope at CHIKV nsP2 ATPase [2] (Avge n=2) is given as 2.35. Also, the values for the inhibition at 25 µM at CHIKV nsP2 ATPase [1] (setting [3]) and on CHIKV nsP2 ATPase [1] (setting [4]) were 53% and 64%, respectively.
`O=c1c(O)c(-c2ccc(O)c(O)c2)oc2cc(O)cc(O)c12` [RA-0001795] returned a half-inhibitory concentration (IC50) on CHIKV nsP2 ATPase [2] of 26.7 µM. On CHIKV nsP2 ATPase [2] (Avge n=2), the Hill slope came to 0.7. Also, the inhibition at 25 µM at CHIKV nsP2 ATPase [1] (setting [3]) is 62%; at CHIKV nsP2 ATPase [1] (setting [4]) it was 55%.
On CHIKV nsP2 ATPase [2] (Avge n=2), `Cc1ccc(N2C(=O)/C(=C/C=C/c3ccco3)C(=O)NC2=S)cc1` [RA-0001799] returned a Hill slope of 2.8. Moreover, the inhibition at 25 µM worked out at 85% at CHIKV nsP2 ATPase [1] (setting [3]) and 64% on CHIKV nsP2 ATPase [1] (setting [4]).
